As usually defined, the AUC(0-inf) is total exposure, with the tail of the curve extrapolated. Read a high AUC(0-inf) as high exposure. A word on the Cmax: it is the highest concentration seen after dosing. For orientation: half-life means the time needed for the level to fall by half in the phase considered.

The structures appear in SMILES notation.

This data set in a line: Rat PK following intravenous and oral dosing. The class given is in vivo, male Sprague-Dawley rats. As for the experimental part: PK in rats was determined following intravenous and oral dosing.
For the intravenous (IV) and oral (PO) experiments, two groups of 4 male Sprague-Dawley rats each were used. The PO group was dosed with 3.0 mg/kg of Compound I-1 formulated as a solution in phosphate buffered saline (PBS). The IV group was dosed with 1.0 mg/kg of Compound I-1 formulated as a solution in phosphate buffered saline (PBS). IV doses were administered through an indwelling catheter in the jugular vein. Following dose administration, the catheter was flushed with ca. 0.25 mL of saline. PO doses were delivered to the stomach using a syringe and gavage tube. Following oral dosage administration, the gavage tube was flushed with approximately 0.5 mL of water to ensure complete delivery of the full dose.
Plasma samples were collected as follows: for the IV and PO experiments, samples were collected at 5 min, 15 min, 30 min, 1 hour, 2 hours, 4 hours, 6 hours, 8 hours, 12 hours, 16 hours, 20 hours and 24 hours, post-dosing. Blood samples (0.25 mL) were collected from the jugular vein. These samples were kept on ice until processed for plasma. Blood samples were centrifuged at 3200 rpm for 5 minutes at approximately 5° C. within 1 hour of collection. Plasma was directly transferred to a 96-well plate tube (0.125 mL). Plug caps were placed on the tubes and the tubes frozen at approximately −70° C. and stored until analysis.
Plasma was collected and analyzed for the presence of Compound I-1 and Intermediate 3 derived from Compound I-1.
Intermediate 3, Compound I-1 and the internal standard (IS, Compound Z) were extracted from plasma by precipitation. Samples were analyzed using liquid chromatography (LC) with tandem mass spectrometric detection (MS/MS) using electrospray ionization. The standard curve range was from 0.1 to 400 ng/mL.
Thawed plasma samples and the required amount of plasma for standards, blanks and dilutions. Prepared crash solution: room temp ACN containing 1 ng/mL Compound Z as Internal Standard. Created a 1× mixed (Intermediate 3 and Compound I-1) standard curve by diluting the 100× stocks (5 uL of each 100× standard into 495 uL of plasma). Transferred 50 uL of each plasma sample/dilution, standard, or blank. Added 200 uL of the crash solution containing IS. Vortexed for 5 minutes. Centrifuged at 16,000 g at room temperature for 10 min. Transferred 200 uL of each supernatant to a plate. Dried under nitrogen in a TurboVap at 55° C. Re-suspended each sample in 50 uL of 0.1% Formic Acid, covered and vortexed. Analyzed by LC-MSMS.

Where [1] appears, read: male, Sprague-Dawley, plasma, Compound I-1 1 mg/kg IV in PBS, analyte Compound I-1.

On to `O=P(O)(O)OC(CNc1nc(-c2cc(-c3ccon3)n(Cc3ccccc3F)n2)ncc1F)(C(F)(F)F)C(F)(F)F` [Compound I-1], for which the “prodrug in plasma samples” value (following PO dosing of Compound I-1 3.0 mg/kg) was “not observed in any plasma samples”. In addition, under setting [1], the AUC(0-inf) came out at 549 ng·h/mL, the concentration peaked (Cmax) at 2780 ± 2450 ng/mL and the clearance was determined as 34.3 mL/min/kg. Under “male, Sprague-Dawley, plasma, iv, 1 mg/kg, Compound I-1 1 mg/kg IV in PBS, analyte Compound I-1”, this compound yielded a half-life of around 9 min.

Source of the values: patent publication US10927136B2, “Phosphorus prodrugs of pyrazolo-substituted pyrimidine sGC stimulators” (Cyclerion Therapeutics, Inc., priority 2016, dated 2021).
